Article PMC8187479, “Sugar phosphate activation of the stress sensor eIF2B” (Nature Communications, 2021)

Molecular target: T1, eIF2Bα (Homo sapiens, UniProt Q14232)
T1 construct: made in house; host or cells: E. coli BL21(DE3)
T1 sequence (Q14232 1-305): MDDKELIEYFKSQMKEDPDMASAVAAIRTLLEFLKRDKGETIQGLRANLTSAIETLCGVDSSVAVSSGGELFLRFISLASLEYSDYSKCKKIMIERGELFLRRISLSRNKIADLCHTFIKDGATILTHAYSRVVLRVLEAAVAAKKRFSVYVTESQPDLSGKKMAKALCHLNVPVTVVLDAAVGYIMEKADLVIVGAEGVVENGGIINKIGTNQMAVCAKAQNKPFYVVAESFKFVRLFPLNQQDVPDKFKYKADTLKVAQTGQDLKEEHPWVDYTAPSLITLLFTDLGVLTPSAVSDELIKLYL
Experiment: MIDAS (mass spectrometry integrated with equilibrium dialysis) metabolite binding screen
Conditions: MIDAS metabolite binding screen with eIF2Bα; sheet "eIF2Ba"
Experimental: Metabolites were combined into four defined screening pools. […] To the reverse side, 300 μL of 50 μM per metabolite pool was aliquoted and sealed (metabolite chamber). Loaded dialysis plates were placed in the dark at 4 °C on a rotating shaker (120 rpm) and incubated for 40 h. Post-dialysis, metabolites were isolated from each chamber by cold methanol extraction. Each sample was analyzed in technical triplicate by FIA-MS on a SCIEX X500R QTOF MS with interspersed blanks injections. The input metabolite pools were assayed at the beginning, middle, and end of each MS method batch for QC and normalization.
MIDAS FIA-MS spectra were processed in SCIEX OS 1.6 software to determine metabolite abundances by integrating the mean area under the curve for each extracted ion chromatogram. For each dialysis replicate, log2(fold change) for each metabolite was calculated as the difference between the log2 abundance in the protein chamber and metabolite chamber. For each technical triplicate, up to one outlier was removed using a z-score cutoff of five (<0.1% of observations). The corrected technical replicates were collapsed to one mean fold-change summary per protein-metabolite pair. To remove fold-change variation that was not specific to a given metabolite-protein pair, the first three principal components of the total screening dataset were removed on a per metabolite pool basis by subtracting the projection of the first 3 principal components, creating log2(corrected fold change). Protein-metabolite z-scores were determined by comparing the target protein-metabolite log2(corrected fold change) to a no-signal model for that metabolite using measures of the central tendency (median) and standard deviation (extrapolated from the 25–75% quantiles), which are robust to the signals in the tails of a metabolite’s fold-change distribution. Z-scores were false-discovery rate controlled using Storey’s q-value (qvalue, R) and protein-metabolite interactions with q-values < 0.1 were considered significant.

`CC(O)CC(=O)SCCNC(=O)CCNC(=O)[C@H](O)C(C)(C)COP(=O)(O)OP(=O)(O)OC[C@H]1O[C@@H](n2cnc3c(N)ncnc32)[C@H](O)[C@@H]1OP(=O)(O)O` (stereo partly drawn) [3-Hydroxybutyryl coenzyme A] and `Nc1ncnc2c1ncn2[C@@H]1O[C@H](COP(=O)(O)OS(=O)(=O)O)[C@@H](OP(=O)(O)O)[C@H]1O` [3-Phosphoadenosine 5-phosphosulfate] are within 0.2 log units of each other in “log2(corrected fold change)” value: 0.00715 for the first, -0.003179 for the second.

`O=C(O)CCO` [3-Hydroxypropionic acid] and `NCCCC(=O)O` [4-Aminobutanoate] are within 0.2 log units of each other in “log2(corrected fold change)” value: -0.02892 for the first, 0.0213 for the second.

`CC(=CC(=O)O)CC(=O)O` [3-Methylglutaconic acid] and `CC(=O)CC(=O)CCC(=O)O` [4,6-Dioxoheptanoic acid] are within 0.2 log units of each other in “log2(corrected fold change)” value: -0.01192 for the first, -0.02657 for the second.

`O=C(O)CC(O)CC(=O)O` [3-hydroxypentanedioic acid] and `CC(C)C(=O)C(=O)O` [3-methyl-2-oxobutyrate] are within 0.2 log units of each other in “log2(corrected fold change)” value: -0.0058 for the first, -0.0499 for the second.

`O=C(O)CNC(=O)Cc1ccc(O)cc1` [4-Hydroxyphenylacetylglycine] and `CN1c2c(nc(N)[nH]c2=O)NCC1CNc1ccc(C(=O)N[C@@H](CCC(=O)O)C(=O)O)cc1` (stereo partly drawn) [5-Methyltetrahydrofolic acid] are within 0.2 log units of each other in “log2(corrected fold change)” value: -0.008576 for the first, 0.02128 for the second.

`O=C(O)Cc1cnc[nH]1` [4-Imidazoleacetic acid] and `Cc1ncc(CO)c(C(=O)O)c1O` [4-Pyridoxic acid] are within 0.2 log units of each other in “log2(corrected fold change)” value: 0.01796 for the first, 0.06772 for the second.

For `Cc1cn([C@@H]2O[C@H](CO)[C@@H](O)[C@H]2O)c(=O)[nH]c1=O` [5-Methyluridine], the “log2(corrected fold change)” value was 0.07915.

Same assay, conditions: MIDAS screen, sheet eIF2Ba; metabolites screened in pools 1-4; p-value and q-value given

Compared with `N[C@@H](Cc1ccc(O)c(I)c1)C(=O)O` [3-Iodo-L-tyrosine], `N[C@@H](Cc1c[nH]c2ccc(O)cc12)C(=O)O` [5-Hydroxy-L-tryptophan] is lower in “log2(corrected fold change)” value: 0.6259 for the first, -0.8537 for the second.

`COc1cc(CCN)ccc1O` [3-Methoxytyramine] and `COc1ccc2[nH]cc(CCN)c2c1` [5-Methoxytryptamine] are within 0.2 log units of each other in “log2(corrected fold change)” value: 0.126 for the first, 0.274 for the second.

`CCC(C)C(=O)C(=O)O` (stereo not drawn) [3-Methyl-2-oxovaleric acid] and `CC(C)CC(=O)C(=O)O` [4-Methyl-2-oxovaleric acid] are the same in “log2(corrected fold change)” value: -0.05419 for the first, -0.05419 for the second.

`CC(CC(=O)O)CC(=O)O` [3-Methylglutaric acid] and `O=C(O)C(=O)CC(O)C(=O)O` (stereo not drawn) [4-Hydroxy-2-oxoglutaric acid] are within 0.2 log units of each other in “log2(corrected fold change)” value: -0.09665 for the first, -0.1985 for the second.

First: O=C(O)C(=O)CS(=O)(=O)O [3-Sulfopyruvic acid]
Second: CSCCC(=O)C(=O)O [4-Methylthio-2-oxobutanoic acid]
The “log2(corrected fold change)” value of the first is lower: -0.112 for the first, 0.0884 for the second.

`NC(=O)NCCC(=O)O` [3-Ureidopropionic acid] and `N=C(N)NCCCC(=O)O` [4-Guanidinobutyric acid] are within 0.2 log units of each other in “log2(corrected fold change)” value: 0.07649 for the first, 0.2552 for the second.

First: O=C(O)c1ccc(O)cc1 [4-Hydroxybenzoic acid]
Second: O=C(O)Cc1ccc(O)cc1 [4-Hydroxyphenylacetic acid]
The “log2(corrected fold change)” value of the first is higher: 0.1295 for the first, -0.07366 for the second.

`O=C(O)C=Cc1c[nH]cn1` [4-Imidazoleacrylic acid] and `COc1ccc2[nH]cc(CC(=O)O)c2c1` [5-Methoxy-3-indoleacetic acid] are within 0.2 log units of each other in “log2(corrected fold change)” value: -0.125 for the first, -0.03075 for the second.

With `O=C(O)CCCc1ccccc1` [4-Phenylbutanoic acid] the “log2(corrected fold change)” value was 0.03839.
